Like-named read-outs stand apart in the source and are kept apart here.
Experiments:
[1] = tested on: peritoneal mesothelial cells
Protocol: That is, this experiment was designed to examine the morphological change in the peritoneal mesothelial cells by high glucose treatment along with the expression levels of mRNA and proteins of fibrosis-mediating materials and the ECM-related materials.
To this end, the peritonea of the male wistar rats were dissected and their peritoneal mesothelial cells were subjected to primary culture using 0.25% trypsin-EDTA. The experiment was performed after dividing them into the following three groups:

[2] = tested on: Snail; assay: Snail expression in MCF7 cells (EMT-suppressing effect)

## CC(=O)O.N=C(NC(=N)N1CCCC1)Nc1ccc(OC(F)(F)F)cc1 [Example 44, N1-pyrrolidine-N5-(4-trifluoromethoxy)phenyl biguanide acetate [N-(N-(4-(trifluoromethoxy)phenyl)carbamimidoyl)pyrrolidine-1-carboximidamideacetate]]
[1]
  morphology of peritoneal mesothelial cells turned into myofibroblasts by high glucose treatment: returned to maintain a shape similar to that of the normal ones (a cobblestone shape)
[2]
  suppression of the expression of Snail: strongly suppress the expression of Snail

## CN(C)C(=N)N=C(N)N [metformin]
[2]; MCF7 cells, 1000 μM, FIG. 1
  suppression of the expression of Snail: failed to suppress the expression of Snail

## [H]/N=C(/N)N/C(=N/[H])NCCc1ccccc1 [phenformin]
[2]; MCF7 cells, 10 μM, FIG. 1
  suppression of the expression of Snail: did not show any effect regarding the suppression of Snail expression
